Results as given in patent publication US11992489B2, “Substituted tetrahydroquinoline compounds as indoleamine 2,3-dioxygenase inhibitors” (Merck Sharp & Dohme LLC, priority 2018, dated 2024).

Target: IDO1 (Homo sapiens, UniProt P14902)
Assay: IDO1 cellular assay in HeLa cells stimulated with IFNγ
Type: cell-based
Settings: IFNγ 100 ng/mL, 300 uM L-tryptophan, about 48 hours, fluorescence readout, read-out: HeLa Cell Potency, IC50
Procedure: Biological Assays IDO1 Cellular Assay in HeLa Cells Stimulated with IFNγ
HeLa cells were cultured in complete HeLa culture medium (90% EMEM, 10% heat-inactivated fetal bovine serum) and expanded to about 1×10^9 cells. The cells were then collected and frozen down at 1×10^7 cells/vial in 1 mL frozen medium (90% complete HeLa culture medium, 10% DMSO).
Compounds to be tested were serially diluted in ten 3-fold steps in DMSO starting from 10 mM DMSO stocks in Echo low volume plate(s). Compound dilutions or DMSO alone were then dispensed from the dilution plate(s) into Greiner black 384-well assay plate(s) (catalog #781086, 50 nL/well) using an Echo 550 acoustic liquid handler (Labcyte).
Frozen HeLa cells were thawed and transferred into HeLa assay medium (99% complete HeLa culture medium, 1% Pen/Strep) with 20 mL medium/vial of cells. The cells were spun down at 250 g in a table top centrifuge for 5 min and suspended in same volume of HeLa assay medium. The cells were then counted and adjusted to a density of 2×10^5 cells/mL in HeLa assay medium. Sterile L-tryptophan were added to the cells with final concentration of 300 uM L-tryptophan. A small aliquot (2 mL/plate) of HeLa cells were set aside and were not treated with IFNγ, to serve as the Max-E control.
HeLa cells with and without IFNγ were dispensed to the respective wells of 384-well assay plates containing the compounds. The plates were incubated for about 48 hours at a 37° C., 5% CO2 incubator. Afterwards, 12 μL of 0.5 M methyl isonipecotate in dimethyl sulfoxide were added into each well and the plates were sealed and incubated at 37° C. without CO2 overnight. The plates were centrifuged for 1 min at 200×g. The resulting fluorescence was measured in a Spectramax plate reader (Molecular Devices) with a 400 nm excitation filter and a 510 nm emission filter.
The fluorescence intensity of each well was corrected for the background observed in wells with non-IFNγ-treated cells and was expressed as a fraction of the intensity observed in wells of IFNγ-treated cells and DMSO only. Potencies were calculated by linear least squares fit to the four parameter logistic IC50 equation.

Chain of IDO1 (P14902 whole entry): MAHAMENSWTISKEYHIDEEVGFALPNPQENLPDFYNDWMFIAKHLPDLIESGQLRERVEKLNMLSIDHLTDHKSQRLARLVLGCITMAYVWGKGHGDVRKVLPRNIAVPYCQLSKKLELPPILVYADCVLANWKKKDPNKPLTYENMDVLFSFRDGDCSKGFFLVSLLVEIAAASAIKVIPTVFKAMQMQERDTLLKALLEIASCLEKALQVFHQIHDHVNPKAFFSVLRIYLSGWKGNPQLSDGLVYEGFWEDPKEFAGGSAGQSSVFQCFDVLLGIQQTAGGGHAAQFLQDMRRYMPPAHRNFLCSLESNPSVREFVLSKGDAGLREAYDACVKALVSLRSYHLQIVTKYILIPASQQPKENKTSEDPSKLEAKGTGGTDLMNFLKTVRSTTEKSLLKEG

| IC50 [nM] | SMILES |
| --- | --- |
| 65.9 | O=C(NC1(c2ccc3c(n2)CCCC3OCC2CC2)CC1)c1ccc(F)cc1 (single isomer, unassigned) [Example 19, N-(1-(5-(cyclopropylmethoxy)-5,6,7,8-tetrahydroquinolin-2-yl)cyclopropyl)-4-fluorobenzamide] |
| 95.4 | O=C(NC1(c2ccc3c(n2)CCCC3OCC2CC2)CC1)c1ccc(F)cc1 (single isomer, unassigned) [Example 20, N-(1-(5-(cyclopropylmethoxy)-5,6,7,8-tetrahydroquinolin-2-yl)cyclopropyl)-4-fluorobenzamide] |
| 1420 | Cc1ncc(C2CCCc3nc(C4(NC(=O)c5ccc(F)cc5)CC4)ccc32)cn1 (stereo not drawn) [Example 30, 4-fluoro-N-(1-(5-(2-methylpyrimidin-5-yl)-5,6,7,8-tetrahydroquinolin-2-yl)cyclopropyl)benzamide] |
| 25 | Cc1nccc(C2CCCc3nc(C4(NC(=O)c5ccc(F)cc5)CC4)ccc32)n1 (stereo not drawn) [Example 21, 4-Fluoro-N-(1-(5-(2-methylpyrimidin-4-yl)-5,6,7,8-tetrahydroquinolin-2-yl)cyclopropyl)benzamide] |
| 2190 | CCC(NC(=O)c1ccc(F)cc1)c1ccc2c(n1)CCCC2c1cncc(F)c1 (stereo not drawn) [Example 25, 4-fluoro-N-(1-(5-(5-fluoropyridin-3-yl)-5,6,7,8-tetrahydroquinolin-2-yl)propyl)benzamide] |
| 854 | CCC(NC(=O)c1ccc(F)cc1)c1ccc2c(n1)CCCC2c1cncc(C(F)(F)F)c1 (stereo not drawn) [Example 29, 4-fluoro-N-(1-(5-(5-(trifluoromethyl)pyridin-3-yl)-5,6,7,8-tetrahydroquinolin-2-yl)propyl)benzamide] |
| 643 | CCC(NC(=O)c1ccc(F)cc1)c1ccc2c(n1)CCCC2c1cncc(C)c1 (stereo not drawn) [Example 27, 4-fluoro-N-(1-(5-(5-methylpyridin-3-yl)-5,6,7,8-tetrahydroquinolin-2-yl)propyl)benzamide] |
| 42.3 | Cc1nccc([C@H]2CCCc3nc(C4(NC(=O)c5ccc(F)cc5)CC4)ccc32)n1 (single isomer, unassigned) [Example 23] |
| 58.6 | O=C(NC1(c2ccc3c(n2)CCCC3OCC2CC2)CC1)c1ccc(F)cc1 (stereo not drawn) [Example 18, N-(1-(5-(cyclopropylmethoxy)-5,6,7,8-tetrahydroquinolin-2-yl)cyclopropyl)-4-fluorobenzamide] |
| 41.3 | Cc1nccc([C@@H]2CCCc3nc(C4(NC(=O)c5ccc(F)cc5)CC4)ccc32)n1 (single isomer, unassigned) [Example 22] |
| 212 | O=C(NC1(c2ccc3c(n2)CCCC3c2cncc(C(F)(F)F)c2)CC1)c1ccc(F)cc1 (stereo not drawn) [Example 28, 4-fluoro-N-(1-(5-(5-(trifluoromethyl)pyridin-3-yl)-5,6,7,8-tetrahydroquinolin-2-yl)cyclopropyl)benzamide] |
| 183 | Cc1cncc(C2CCCc3nc(C4(NC(=O)c5ccc(F)cc5)CC4)ccc32)c1 (stereo not drawn) [Example 26, 4-fluoro-N-(1-(5-(5-methylpyridin-3-yl)-5,6,7,8-tetrahydroquinolin-2-yl)cyclopropyl)benzamide] |
| 384 | O=C(NC1(c2ccc3c(n2)CCCC3c2cncc(F)c2)CC1)c1ccc(F)cc1 (stereo not drawn) [Example 24, 4-Fluoro-N-(1-(5-(5-fluoropyridin-3-yl)-5,6,7,8-tetrahydroquinolin-2-yl)cyclopropyl)benzamide] |

Continued, molecule first:

| SMILES | IC50 [nM] |
| --- | --- |
| O=C(NC1(c2ccc3c(n2)CCCC3Oc2ccc(F)nc2)CC1)c1ccc(F)cc1 (stereo not drawn) [Example 5, 4-fluoro-N-(1-(5((6-fluoropyridin-3-yl)oxy)-5,6,7,8-tetrahydroquinolin-2-yl)cyclopropyl)benzamide] | 12.4 |
| O=C(NC1(c2ccc3c(n2)CCCC3Nc2cccc(Cl)c2)CC1)c1ccc(F)cc1 (stereo not drawn) [Example 17, N-(1-(5-((3-chlorophenyl)amino)-5,6,7,8-tetrahydroquinolin-2-yl)cyclopropyl)-4-fluorobenzamide] | 38.2 |
| CN(C)c1ncc(OC2CCCc3nc(C4(NC(=O)c5ccc(F)cc5)CC4)ccc32)cn1 (stereo not drawn) [Example 14, N-(1-(5-((2-(dimethylamino)pyrimidin-5-yl)oxy)-5,6,7,8-tetrahydroquinolin-2-yl)cyclopropyl)-4-fluorobenzamide] | 81.4 |
| N#Cc1cccc(OC2CCCc3nc(C4(NC(=O)c5ccc(F)cc5)CC4)ccc32)c1 (stereo not drawn) [Example 12, N-(1-(5-(3-cyanophenoxy)-5,6,7,8-tetrahydroquinolin-2-yl)cyclopropyl)-4-fluorobenzamide] | 5.69 |
| N#Cc1cccc(OC2CCCc3nc(C4(NC(=O)c5ccc(F)cc5)CC4)ccc32)c1 (stereo not drawn) [Example 8, N-(1-(5-(3-cyanophenoxy)-5,6,7,8-tetrahydroquinolin-2-yl)cyclopropyl)-4-fluorobenzamide] | 2.16 |
| O=C(NC1(c2ccc3c(n2)CCCC3Oc2cncc(Cl)c2)CC1)c1ccc(F)cc1 (stereo not drawn) [Example 7, N-(1-(5-((5-chloropyridin-3-yl)oxy)-5,6,7,8-tetrahydroquinolin-2-yl)cyclopropyl)-4-fluorobenzamide] | 5.32 |
| Cc1ncc(OC2CCCc3nc(C4(NC(=O)c5ccc(F)cc5)CC4)ccc32)cn1 (stereo not drawn) [Example 15, 4-fluoro-N-(1-(5-((2-methylpyrimidin-5-yl)oxy)-5,6,7,8-tetrahydroquinolin-2-yl)cyclopropyl)benzamide] | 130 |
| Cc1ncc(OC2CCCc3nc(C4(NC(=O)c5ccc(F)cc5)CC4)ccc32)cn1 (stereo not drawn) [Example 13, 4-fluoro-N-(1-(5-((2-methylpyrimidin-5-yl)oxy)-5,6,7,8-tetrahydroquinolin-2-yl)cyclopropyl)benzamide] | 44.5 |
| O=C(NC1(c2ccc3c(n2)CCCC3Oc2cncc(Cl)c2)CC1)c1ccc(F)cc1 (stereo not drawn) [Example 11, N-(1-(5-((5-chloropyridin-3-yl)oxy)-5,6,7,8-tetrahydroquinolin-2-yl)cyclopropyl)-4-fluorobenzamide] | 3.96 |
| O=C(NC1(c2ccc3c(n2)CCCC3Nc2cccc(Cl)c2)CC1)c1ccc(F)cc1 (stereo not drawn) [Example 16, N-(1-(5-((3-chlorophenyl)amino)-5,6,7,8-tetrahydroquinolin-2-yl)cyclopropyl)-4-fluorobenzamide] | 13.9 |
| Cc1ccncc1OC1CCCc2nc(C3(NC(=O)c4ccc(F)cc4)CC3)ccc21 (stereo not drawn) [Example 10, 4-fluoro-N-(1-(5-((4-methylpyridin-3-yl)oxy)-5,6,7,8-tetrahydroquinolin-2-yl)cyclopropyl)benzamide] | 108 |
| Cc1ccncc1OC1CCCc2nc(C3(NC(=O)c4ccc(F)cc4)CC3)ccc21 (stereo not drawn) [Example 6, 4-fluoro-N-(1-(5((4-methylpyridin-3-yl)oxy)-5,6,7,8-tetrahydroquinolin-2-yl)cyclopropyl)benzamide] | 9.96 |
| CN(C)c1ncc(OC2CCCc3nc(C4(NC(=O)c5ccc(F)cc5)CC4)ccc32)cn1 (single isomer, unassigned) [Example 4, N-(1-(5-((2-(dimethylamino)pyrimidin-5-yl)oxy)-5,6,7,8-tetrahydroquinolin-2-yl)cyclopropyl)-4-fluorobenzamide] | 9.34 |
| O=C(NC1(c2ccc3c(n2)CCCC3Oc2ccc(F)nc2)CC1)c1ccc(F)cc1 (stereo not drawn) [Example 9, 4-fluoro-N-(1-(5((6-fluoropyridin-3-yl)oxy)-5,6,7,8-tetrahydroquinolin-2-yl)cyclopropyL)benzamide] | 24.4 |
